These results are taken from PubChem BioAssay (NCI).

Among the test systems are PC-3 prostate; M14 melanoma; SW-620 colon; HCT-15 colon; T-47D breast; MCF7 breast; SNB-75 CNS; RXF 393 renal; HS 578T breast; IGROV1 ovarian.
Assay in all cases: NCI tumour cell line growth inhibition, 48 h

Each structure is given as a SMILES string.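 Following 48 hours of exposure in 96-well plates, responses at five concentrations were used to interpolate endpoints linearly. At the GI50, growth is halved. At the TGI there is no net growth.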

On to `CC(=O)N[C@@H](Cc1ccc(OP(=O)(O)O)cc1)C(=O)N[C@H]1CCC(=O)N2CCC[C@@H](C(=O)NCc3ccc(O)cc3)N2C1=O`, for which the GI50 with PC-3 prostate, with M14 melanoma, with SW-620 colon, in the assay with HCT-15 colon, in the assay with T-47D breast and in the assay with MCF7 breast was over 25000 nM throughout. For the same compound, the GI50 with SNB-75 CNS, in the assay on RXF 393 renal, in the assay with HS 578T breast and in the assay with IGROV1 ovarian was over 25000 nM each time. The TGI in the assay with PC-3 prostate, in the assay on M14 melanoma, in the assay with SW-620 colon, in the assay on HCT-15 colon, in the assay with T-47D breast and in the assay on MCF7 breast was over 25000 nM in each case. The TGI with SNB-75 CNS, with RXF 393 renal, in the assay with HS 578T breast and in the assay with IGROV1 ovarian was over 25000 nM in each case.

For `COc1cc2c3c(c1O)C1(C=CC(=O)C=C1)CC3N(C)CC2` (centres undefined), the TGI with PC-3 prostate was found to be 31100 nM; in the assay with M14 melanoma, 24500 nM; in the assay on SW-620 colon it was 18300 nM; with HCT-15 colon, 19000 nM; with T-47D breast, 26200 nM; with MCF7 breast it was 20500 nM. In addition, the TGI in the assay on SNB-75 CNS was 43400 nM; in the assay with RXF 393 renal, 19400 nM; with HS 578T breast, over 100000 nM; in the assay on IGROV1 ovarian, 25400 nM.

For the compound `C/C(=N\Nc1cccc(Cl)n1)c1ccccn1`, the GI50 with PC-3 prostate is 890 nM; with M14 melanoma, 737 nM; in the assay on SW-620 colon, 614 nM; with HCT-15 colon it was 363 nM; with T-47D breast, 1090 nM; in the assay with MCF7 breast it was 2000 nM. Further, the GI50 was 2280 nM with SNB-75 CNS, 982 nM in the assay with RXF 393 renal, 5080 nM in the assay on HS 578T breast and 533 nM in the assay with IGROV1 ovarian. The TGI in the assay with PC-3 prostate was over 100000 nM; in the assay with M14 melanoma it was 14300 nM; in the assay on SW-620 colon, over 100000 nM; in the assay with HCT-15 colon, over 100000 nM; in the assay with T-47D breast, 13100 nM; in the assay with MCF7 breast it was over 100000 nM. For the same compound, the TGI is over 56900 nM in the assay on SNB-75 CNS, 16100 nM with RXF 393 renal, over 100000 nM in the assay on HS 578T breast and over 59100 nM in the assay on IGROV1 ovarian.

For the compound `COc1ccc(NC(=O)O[C@H]2[C@H](O[C@H]3[C@@H](O)COC(O[C@H]4C[C@H]5[C@@H]6CC=C7C[C@@H](O)CC[C@]7(C)[C@H]6CC[C@]5(C)[C@H]4[C@H](C)C(=O)CCC(C)C)[C@@H]3OC(C)=O)OC[C@@H](O)[C@@H]2O)cc1` (some centres undefined), the GI50 in the assay with PC-3 prostate was under 10 nM; with M14 melanoma, under 10 nM; in the assay on SW-620 colon, under 10 nM; with HCT-15 colon, 73.5 nM; in the assay on T-47D breast it was under 10 nM; in the assay with MCF7 breast, under 10 nM. In addition, the GI50 is under 10 nM in the assay with SNB-75 CNS, under 10 nM in the assay on RXF 393 renal, under 10 nM in the assay with HS 578T breast and 33.1 nM in the assay on IGROV1 ovarian. Also, the TGI in the assay on PC-3 prostate stood at 4870 nM; in the assay with M14 melanoma, 20.3 nM; in the assay on SW-620 colon it was 66.4 nM; in the assay with HCT-15 colon, 1230 nM; in the assay with T-47D breast, 14700 nM; in the assay on MCF7 breast it was 1470 nM. For the same compound, the TGI in the assay with SNB-75 CNS was 6880 nM; with RXF 393 renal it was under 10 nM; in the assay on HS 578T breast, 11.6 nM; in the assay with IGROV1 ovarian it was over 100000 nM.

As to `ClC1=C(Cl)C(Cl)=C(Cl)C1=Cc1ccc(Cl)cc1`, the GI50 in the assay on PC-3 prostate is 876 nM; with M14 melanoma, 287 nM; in the assay with SW-620 colon, 241 nM; in the assay with HCT-15 colon it was 536 nM; in the assay on T-47D breast, 484 nM; in the assay on MCF7 breast, 386 nM. For the same compound, the GI50 in the assay with SNB-75 CNS is 1440 nM; in the assay with RXF 393 renal, 267 nM; with HS 578T breast, 585 nM; with IGROV1 ovarian, 396 nM. Further, the TGI in the assay with PC-3 prostate is 6500 nM; in the assay with M14 melanoma it was 904 nM; in the assay on SW-620 colon, 680 nM; with HCT-15 colon it was 2560 nM; with T-47D breast it was 2040 nM; in the assay with MCF7 breast, 1790 nM. In addition, the TGI in the assay with SNB-75 CNS amounted to 3260 nM; with RXF 393 renal, 842 nM; with IGROV1 ovarian it was 2110 nM.
